Source: ChEMBL document CHEMBL1148059, “Isolation and structure elucidation of new nitrile and mustard oil glycosides from Moringa oleifera and their effect on blood pressure” (1994)
Calls of active or inactive are those of the source. The calls are words filed in the database; no cut-off is given here.

How the values were obtained:
[1] = test system: Rattus norvegicus; assay: Hypotensive activity against normotensive anesthetized Wistar rat assessed as reduction in mean arterial blood pressure at 3 ug/kg, iv; format: functional; set-up: scale not given: the % may be the effect or the level left
[2] = test system: Rattus norvegicus; assay: Hypotensive activity against normotensive anesthetized Wistar rat assessed as reduction in mean arterial blood pressure at 3 mg/kg, iv; set-up: scale not given: the % may be the effect or the level left
[3] = test system: Rattus norvegicus; assay: Hypotensive activity against normotensive anesthetized Wistar rat assessed as reduction in mean arterial blood pressure up to 5 mg/kg, iv
[4] = test system: Rattus norvegicus; assay: Hypotensive activity against normotensive anesthetized Wistar rat assessed as reduction in mean arterial blood pressure up to 5 ug/kg, iv; format: functional, organism-based
[5] = test system: Rattus norvegicus; assay: Hypotensive activity against normotensive anesthetized Wistar rat assessed as reduction in mean arterial blood pressure at 1 ug/kg, iv; format: functional; set-up: scale not given: the % may be the effect or the level left

For CCOC(=S)NCc1ccc(O[C@@H]2O[C@@H](C)[C@H](OC(C)=O)[C@@H](O)[C@H]2O)cc1 [listing 1 of 3 here], the Activity [1] was 37.51%.
In the case of CC(=O)O[C@@H]1[C@@H](O)[C@@H](O)[C@H](Oc2ccc(CN=C=S)cc2)O[C@H]1C, the Activity [2] is reported as 34.91% and the Activity [3] is reported as “Active”.
In the case of CC(=O)O[C@@H]1[C@@H](O)[C@@H](O)[C@H](Oc2ccc(CC#N)cc2)O[C@H]1C, the Activity [3] is reported as “inactive”.
With CCOC(=S)NCc1ccc(O[C@@H]2O[C@@H](C)[C@H](OC(C)=O)[C@@H](O)[C@H]2O)cc1 [listing 2 of 3 here] the Activity [4] was “Active”.
Work on CCOC(=S)NCc1ccc(O[C@@H]2O[C@@H](C)[C@H](OC(C)=O)[C@@H](O)[C@H]2O)cc1 [listing 3 of 3 here] yielded an Activity [1] of 40.33%.
CC(=O)OCC[N+](C)(C)C [ACETYLCHOLINE] showed an Activity [5] of 59.5%.
For C[C@@H]1O[C@@H](Oc2ccc(CC#N)cc2)[C@H](O)[C@H](O)[C@H]1O, the Activity [3] was “inactive”.
